Assays:
[1] = test system: Porcine Smooth Muscle Cell; assay: Cytotoxicity, MTT assay; format: cell-based; conditions: up to 100 µg/mL; 24 h, medium without serum
Method: Briefly, cells were again grown in 24 well plates to 70 - 80 % confluency and, as before, serum deprived for 24 - 48 h prior to initiation of the experimental protocol. To insure that the MTT assay monitored toxicity rather than proliferation, cells were incubated with 100 µg/mL of drug in fresh medium without serum for 24 h at 37 °C in a humidified CO2 incubator. Upon completion of the compound treatment, MTT (3-[4,5-dimethylthiazol-2-yl]-2,5-diphenyltetrazolium bromide) indicator dye was added for 4 h at 37 °C. Cells were then lysed and aliquots from each well were transferred to a 96 well plate for analysis. Absorbance at 570 nm wavelength with a reference wavelength of 630 nm was recorded using an ELISA plate reader. Results were determined as percent viable using no drug (100% viable) and pre-solubilization (0% viable) standards.

[2] = test system: normal human plasma; assay: Anticoagulant activity, partial thromboplastin time (APTT) assay; format: biochemical; conditions: human citrated plasma
Method: The anticlotting activity of the compounds of this invention was evaluated in a partial thromboplastin time (APTT) assay using normal human plasma collected from 5 donors according to the procedure of Fenichel et. al. (Clin. Chem. 1964, 10, 69). A BBL Fibrometer automatic precision coagulation timer utilizing a 0.3 mL probe was employed. An Ellagic acid activated partial thromboplastin was used for these experiments. This reagent was added to human citrated plasma equilibrated at 37 °C in a plastic well in the clot timer. Calcium at 37 °C was added, the clot timer was started and the time for fibrin clot formation (in seconds) was recorded. The effect of the compounds, added to plasma, over a concentration of 12.5 - 200 µg/mL was determined. […] An unfractionated heparin comparator was used over the concentration range of 1.25 - 10 µg/mL. Clotting tests at all concentrations were run in triplicate. Analysis of variance for a randomized block design was used to determine the significance of differences observed in the clotting times. […]

SMILES	toxicity (MTT, percent viable) [1]	anticoagulant activity (APTT assay) [2]
CC(=O)OC[C@H]1O[C@H](O[C@H]2[C@H](OC(C)=O)[C@@H](OC(C)=O)[C@H](OCc3ccc(C)c(NS(=O)(=O)c4ccc(NS(C)(=O)=O)cc4)c3)O[C@@H]2COC(C)=O)[C@H](OC(C)=O)[C@@H](OC(C)=O)[C@@H]1OC(C)=O [Example 17, N-[5-(Hepta-O-acetyl-β-D-maltosyloxymethyl)-2-methylphenyl]-4-(methanesulfonylamino)benzenesulfonamide]	no toxicity	no anticoagulant activity
CCCCC(=O)Nc1cc(CO[C@@H]2O[C@H](COC(C)=O)[C@@H](O[C@H]3O[C@H](COC(C)=O)[C@@H](OC(C)=O)[C@H](OC(C)=O)[C@H]3OC(C)=O)[C@H](OC(C)=O)[C@H]2OC(C)=O)ccc1C [Example 12, Pentanoic Acid N-[5-(Hepta-O-acetyl-β-D-maltosyloxymethyl)-2-methylphenyl]amide]	no toxicity	no anticoagulant activity
